Assay results: patent US20230203043A1, “NOVEL IMIDAZOPYRAZINE DERIVATIVES” (Hoffmann-La Roche Inc., priority 2020, published 2023)
Where a name gives a salt, the structure may show the parent alone. Read-outs that look alike come from different tables or passages of the source.

Tested on: Acinetobacter baumannii ATCC17961
Assay: Antimicrobial susceptibility testing: 90% growth inhibitory concentration (IC90) determination in Iso-Sensitest broth, OD600 growth
Assay type: cell-based
Settings: Acinetobacter baumannii, ATCC17961, 16 h
Procedure, shortened: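 Each strain, at about 5×10^(5) CFU/ml, was incubated with twofold dilutions of compound at 35±2° C for 16 h, and IC90 was calculated from kinetic optical density measured at 600 nm during logarithmic growth.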

[1] = strain ATCC 17961, OD600 growth over 16 h, read-out: A. baumannii ATCC 17961 IC90
[2] = read-out: A. baumannii ATCC 17961 IC90 (uM), strain ATCC 17961, OD600 growth over 16 h

Compound	IC90 [1] [µM]	IC90 [2] [µM]
CCc1cc(Nc2nccn3c(-c4cn(CC(F)F)nc4C(F)(F)F)cnc23)ccc1C(=O)NCC(=O)N1CC[C@H](N)C1 [Example 711, N-[2-[(3S)-3-aminopyrrolidin-1-yl]-2-oxo-ethyl]-4-[[3-[1-(2,2-difluoroethyl)-3-(trifluoromethyl)pyrazol-4-yl]imidazo[1,2-a]pyrazin-8-yl]amino]-2-ethyl-benzamide]	0.409	
CCc1cc(Nc2nccn3c(-c4cn(CC#N)nc4C(F)(F)F)cnc23)ccc1C(=O)N[C@H](C)CNC(=O)[C@@H]1C[C@@H](O)CN1 [Example 712, (2S,4R)-N-((R)-2-(4-((3-(1-(cyanomethyl)-3-(trifluoromethyl)-1H-pyrazol-4-yl)imidazo[1,2-a]pyrazin-8-yl)amino)-2-ethylbenzamido)propyl)-4-hydroxypyrrolidine-2-carboxamide]	0.41	
N#CCn1cc(-c2cnc3c(Nc4ccc(C(=O)NCC(=O)N5CC(N)C5)c(Cl)c4)nccn23)c(C(F)(F)F)n1 [Example 713, N-[2-(3-aminoazetidin-1-yl)-2-oxo-ethyl]-2-chloro-4-[[3-[1-(cyanomethyl)-3-(trifluoromethyl)pyrazol-4-yl]imidazo[1,2-a]pyrazin-8-yl]amino]benzamide formate]		0.417
Cc1cc(Nc2nccn3c(-c4cn(CCF)nc4C(F)(F)F)cnc23)cc(F)c1C(=O)N1CCN(C(=O)[C@H]2CC[C@H](O)N2)CC1 [Example 714, (4-(2-fluoro-4-((3-(1-(2-fluoroethyl)-3-(trifluoromethyl)-1H-pyrazol-4-yl)imidazo[1,2-a]pyrazin-8-yl)amino)-6-methylbenzoyl)piperazin-1-yl)((2R,5S)-5-hydroxypyrrolidin-2-yl)methanone]	0.422	
Cc1cc(Nc2nccn3c(-c4cn(CC#N)nc4C(F)(F)F)cnc23)cc(F)c1C(=O)N1CCN(C(=O)[C@H]2CC[C@H](O)N2)CC1 [Example 715, 2-(4-(8-((3-fluoro-4-(4-((2R,5S)-5-hydroxypyrrolidine-2-carbonyl)piperazine-1-carbonyl)-5-methylphenyl)amino)imidazo[1,2-a]pyrazin-3-yl)-3-(trifluoromethyl)-1H-pyrazol-1-yl) acetonitrile]	0.422	
CCc1cc(Nc2nccn3c(-c4cn(CC#N)nc4C(F)(F)F)cnc23)ccc1C(=O)NCC(=O)N1CC(N)C1 [Example 716, N-[2-(3-aminoazetidin-1-yl)-2-oxo-ethyl]-4-[[3-[1-(cyanomethyl)-3-(trifluoromethyl)pyrazol-4-yl]imidazo[1,2-a]pyrazin-8-yl]amino]-2-ethyl-benzamide formate]		0.426
CCc1cc(Nc2nccn3c(-c4cn(CC(F)F)nc4C(F)(F)F)cnc23)ccc1C(=O)NCCOCCN1CCOCC1 [Example 717, 4-((3-(1-(2,2-difluoroethyl)-3-(trifluoromethyl)-1H-pyrazol-4-yl)imidazo[1,2-a]pyrazin-8-yl)amino)-2-ethyl-N-(2-(2-morpholinoethoxy)ethyl)benzamide formate]		0.434
CCc1cc(Nc2nccn3c(-c4c[nH]nc4C(F)(F)F)cnc23)ccc1C(=O)NCCNC(=O)[C@H](C)N [Example 718, (S)-N-(2-(2-aminopropanamido)ethyl)-2-ethyl-4-((3-(3-(trifluoromethyl)-1H-pyrazol-4-yl)imidazo [1,2-a]pyrazin-8-yl)amino)benzamide formate]		0.435
Cc1cc(Nc2nccn3c(-c4cn(CC#N)nc4C(F)(F)F)cnc23)cc(F)c1C(=O)N[C@H](C)CN [Example 719, (R)-N-(1-aminopropan-2-yl)-4-((3-(1-(cyanomethyl)-3-(trifluoromethyl)-1H-pyrazol-4-yl)imidazo[1,2-a]pyrazin-8-yl)amino)-2-fluoro-6-methylbenzamide]	0.435	
Cc1cc(Nc2nccn3c(-c4cn(CC#N)nc4C(F)(F)F)cnc23)cc(F)c1C(=O)N[C@H](C)CNC(=O)[C@H]1[C@@H]2CNC[C@@H]21 [Example 720, (1R,5S,6r)-N-((R)-2-(4-((3-(1-(cyanomethyl)-3-(trifluoromethyl)-1H-pyrazol-4-yl)imidazo[1,2-a]pyrazin-8-yl)amino)-2-fluoro-6-methylbenzamido)propyl)-3-azabicyclo[3.1.0] hexane-6-carboxamide formate]	0.441	
Cc1cc(Nc2nccn3c(-c4cn(CC#N)nc4C(F)(F)F)cnc23)cc(F)c1C(=O)N1CCN(C(=O)[C@@H]2C[C@@H](O)CN2)CC1 [Example 721, 2-(4-(8-((3-fluoro-4-(4-((2S,4R)-4-hydroxypyrrolidine-2-carbonyl)piperazine-1-carbonyl)-5-methylphenyl)amino)imidazo[1,2-a]pyrazin-3-yl)-3-(trifluoromethyl)-1H-pyrazol-1-yl) acetonitrile formate]		0.452
Cc1cc(Nc2nccn3c(-c4cn(CC#N)nc4C(F)(F)F)cnc23)cc(F)c1C(=O)N[C@H](C)CNC(=O)[C@H](C)N [Example 722, N-((R)-1-((S)-2-aminopropanamido)propan-2-yl)-4-((3-(1-(cyanomethyl)-3-(trifluoromethyl)-1H-pyrazol-4-yl)imidazo[1,2-a]pyrazin-8-yl)amino)-2-fluoro-6-methylbenzamide formate]		0.458
N#CCn1cc(-c2cnc3c(Nc4ccc(C(=O)NCC(=O)N[C@@H]5CCNC5)c(Cl)c4)nccn23)c(C(F)(F)F)n1 [Example 723, 2-chloro-4-[[3-[1-(cyanomethyl)-3-(trifluoromethyl)pyrazol-4-yl]imidazo[1,2-a]pyrazin-8-yl]amino]-N-[2-oxo-2-[[(3R)-pyrrolidin-3-yl]amino]ethyl]benzamide formate]		0.459
CCc1cc(Nc2nccn3c(-c4c[nH]nc4C(F)(F)F)cnc23)ccc1C(=O)NCCNC(=O)[C@H]1CC[C@@H](N)C1 [Example 724, N-(2-((1S,3R)-3-aminocyclopentane-1-carboxamido)ethyl)-2-ethyl-4-((3-(3-(trifluoromethyl)-1H-pyrazol-4-yl)imidazo[1,2-a]pyrazin-8-yl)amino)benzamide]	0.459	
Cc1cc(Nc2nccn3c(-c4cn(CC#N)nc4C(F)(F)F)cnc23)ccc1C(=O)N[C@H](C)C(=O)NC1CC(N)C1 (stereo partly drawn) [Example 725, N-[(1R)-2[(3-aminocyclobutyl)amino]-1-methyl-2-oxo-ethyl]-4-[[3-[1-(cyanomethyl)-3-(trifluoromethyl)pyrazol-4-yl]imidazo[1,2-a]pyrazin-8-yl]amino]-2-methyl-benzamide formate]		0.462
Cc1cc(Nc2nccn3c(-c4cn(CC#N)nc4C(F)(F)F)cnc23)ccc1C(=O)N[C@H](C)C(=O)N1CCNCC1 [Example 726, 4-[[3-[1-(cyanomethyl)-3-(trifluoromethyl)pyrazol-4-yl]imidazo[1,2-a]pyrazin-8-yl]amino]-2-methyl-N-[(1R)-1-methyl-2-oxo-2-piperazin-1-yl-ethyl]benzamide formate]		0.463
CCc1cc(Nc2nccn3c(-c4cn(CC(F)F)nc4C(F)(F)F)cnc23)ccc1C(=O)NCCCNC(=O)[C@@H]1C[C@@H](O)CN1 [Example 727, (2S,4R)-N-(3-(4-((3-(1-(2,2-difluoroethyl)-3-(trifluoromethyl)-1H-pyrazol-4-yl)imidazo[1,2-a]pyrazin-8-yl)amino)-2-ethylbenzamido)propyl)-4-hydroxypyrrolidine-2-carboxamide]	0.465	
